Measurements reported in patent US20230026616A1, “PYRIMIDOIMIDAZOLE COMPOUNDS USED AS DNA-PK INHIBITORS” (MEDSHINE DISCOVERY INC., priority 2019, published 2023).

Tests used:
[1] = test system: human non-small cell lung cancer NCI-H1703 cell subcutaneous xenograft tumor; assay: In vivo pharmacodynamics, NCI-H1703 subcutaneous xenograft tumor model; design: species or system BALB/c nude mice; conditions: for Tumor volume (Day 0): Day 0 (baseline), Mean ± SEM; for Tumor volume (Day 21): Day 21, Mean ± SEM; for T/Cweight: day 21; for Tumor weight (PG-D21): day 21, Mean ± SEM
Method: Experimental purpose: To study the in vivo pharmacodynamics of the test compounds in BALB/c nude mice model with human non-small cell lung cancer NCI-H1703 cell subcutaneous xenograft tumor
Experimental animals: Female BALB/c nude mice, 6-8 weeks old, weighing 18-22 grams; supplier: Shanghai Sippe-Bk Lab Animal Co., Ltd.
Human non-small cell lung cancer NCI-H1703 cells were cultured in vitro in RPMI1640 medium with 10% fetal bovine serum, 100 U/mL penicillin and 100 μg/mL streptomycin at 37° C. in a 5% CO2 incubator. Conventional digestion with trypsin-EDTA was performed twice a week for passage. When the cell saturation was 80%-90% and the number reached the requirement, the cells were collected, counted, and seeded.
0.2 mL (5×10^6 cells) NCI-H1703 cells (added with matrigel, volume ratio of 1:1) were subcutaneously inoculated into the right back of each mouse, and the group administration started when the average tumor volume reached about 130 mm^3.
Compound 5 was prepared into 3 mg/mL, 6 mg/mL, 9 mg/mL suspension solutions, and compound 17 was prepared into 9 mg/mL suspensions, and the solvent was 0.5% HPMC+1% Tween 80.
Tumor diameters were measured with vernier calipers twice a week. The calculation formula of tumor volume is: V=0.5a×b^2, wherein a and b represent the long and short diameters of the tumor, respectively.
The antitumor efficacy of the compounds was evaluated by TGI (%) or relative tumor proliferation rate T/C (%). Relative tumor proliferation rate T/C (%)=TRTV/CRTV×100% (TRTV: means RTV in the treatment group; CRTV: means RTV in the negative control group). The relative tumor volume (RTV) was calculated according to the results of tumor measurement. The calculation formula is RTV=Vt/V0, wherein V0 is the tumor volume measured at the time of group administration (i.e., day 0), and Vt is the tumor volume at one measurement. Data of the same day was taken for TRTV and CRTV.
TGI (%), reflecting tumor growth inhibition rate. TGI (%)=[1−(average tumor volume at the end of administration of a certain treatment group-average tumor volume at the beginning of administration of this treatment group)/(average tumor volume at the end of treatment in the solvent control group-average volume at the beginning of treatment in the solvent control group tumor volume)]×100%. After the experiment, the tumor weight was detected, and the T/weight percentage was calculated. T weight and C weight represent the tumor weight of the administration group and the solvent control group, respectively.
Statistical analysis was performed using SPSS software based on RTV data at the end of the experiment. […] T-test was used to analyze the comparison between two groups, and one-way ANOVA was used to analyze the comparison between three or more groups. If the variance was homogeneous (F value had no significant difference), Tukey's method was used for analysis. If the variance was not homogeneous (F value had significant difference), the Games-Howell method was used to test. p<0.05 was considered a significant difference.

[2] = Pharmacokinetic evaluation in cynomolgus monkeys; format: in vivo, Male cynomolgus monkeys
From the text: (§1) IV: intravenous injection; PO: oral; C0: instantaneous […] concentration after intravenous injection; Cmax: highest plasma concentration after administration; Tmax: time required to reach peak of drug concentration after administration; T1/2: time required for the plasma drug concentration to decrease by half, Vdss: apparent volume of distribution, refers to the proportional constant of the drug dose in vivo and the blood drug concentration when the drug reaches a dynamic equilibrium in vivo. Cl: clearance rate, refers to the […] cleared from the body per unit time; Tlast: time at the last detection point; AUC0-last: area under the drug-time curve, refers to the area covered by the plasma concentration curve and the time axis; F: a measure of the speed and degree of drug absorption into the blood circulation, which is an important indicator for evaluating the degree of drug absorption.
Test compound was mixed with 10% dimethyl sulfoxide/50% polyethylene glycol 200/40% water, vortexed and sonicated to prepare a nearly clear solution of 1 mg/mL, then filtered through a microporous membrane for next step. Male cynomolgus monkeys were selected and administered intravenously with the candidate compound solution at a dose of 1 mg/kg. Test compound was mixed with 10% dimethyl sulfoxide/50% polyethylene glycol 200/40% water, vortexed and sonicated to prepare a nearly clear solution of 1 mg/mL, then filtered with a microporous membrane for next step. Male cynomolgus monkeys were selected and orally administered with the candidate compound solution at a dose of 5 mg/kg. Whole blood was collected for a certain period of time, and plasma was prepared, then drug concentration was detected by LC-MS/MS method, and pharmacokinetic parameters were calculated by Phoenix WinNonlin software (Pharsight, USA).

[3] = Pharmacokinetic evaluation in mice (2), plasma; format: in vivo, Balb/c male mice
From the text: as §1
Test compounds were mixed with […]/50% polyethylene glycol 200/40% water, vortexed and sonicated to prepare a nearly clear solution of 0.4 mg/mL (compound 5), then filtered through a microporous membrane for next step. Balb/c male mice of 18 to 20 grams were selected and administered intravenously with the candidate compound solution at a dose of 2 mg/kg. Test compounds were mixed with 10% dimethyl sulfoxide/50% polyethylene glycol 200/40% water, vortexed and sonicated to prepare a nearly clear solution of 1 mg/mL, then filtered with a microporous membrane for next step. Balb/c male mice of 18 to 20 grams were selected and orally administered with the candidate compound solution at a dose of 10 mg/kg. Whole blood was collected for a certain period of time, and plasma was prepared, then drug concentration was detected by LC-MS/MS method, and pharmacokinetic parameters were calculated by Phoenix WinNonlin software (Pharsight, USA).

[4] = male, 1 mg/kg, cynomolgus monkey plasma, IV 1 mpk
[5] = male, 5 mg/kg, cynomolgus monkey plasma, PO 5 mpk
[6] = male, Balb/c, 2 mg/kg, mouse plasma, IV 2 mpk
[7] = male, Balb/c, 10 mg/kg, mouse plasma, PO 10 mpk

Cc1cc2nncn2cc1Nc1ncc2c(n1)n(N1CC3CCC(C1)O3)c(=O)n2C [Compound 17]
Tumor volume (Day 0) ([1]; 90 mg/kg twice a day): 130 ± 13 mm^3
RTV (Day 21) ([1]; 90 mg/kg twice a day): 3.19 ± 0.46
T/C (%) (Day 21) ([1]; 90 mg/kg twice a day): 33.4%
TGI (%) (Day 21) ([1]; 90 mg/kg twice a day): 71.6%
Tumor volume (Day 21) ([1]; 90 mg/kg twice a day): 435 ± 94 mm^3
T/Cweight ([1]; 90 mg/kg): 35.9%
Tumor weight (PG-D21) ([1]; 90 mg/kg): 0.466 ± 0.103 g
tumor inhibitory effect compared with the blank control (in words) ([1]; 90 mg/kg, dosed twice a day): significant tumor inhibitory effect

Cc1cc2ncnn2cc1Nc1ncc2c(n1)n(N1CC3CCC(C1)O3)c(=O)n2C [Compound 5]
Tlast ([2]; cynomolgus monkey plasma, PO 5 mpk): 12 h
F ([2]; cynomolgus monkey, PO 5 mpk vs IV 1 mpk): 115%
AUC(0-t) [2, 4]: 2.44 µM·h
C0 [2, 4]: 2.29 µM
clearance [2, 4]: 16.8 mL/min/kg
half-life [2, 4]: 3.6 h
Vd ([2]; male, 1 mg/kg, cynomolgus monkey plasma, IV 1 mpk, read-out: Vdss): 1.52 L/kg
AUC(0-t) [2, 5]: 14 µM·h
Cmax [2, 5]: 4.5 µM
Tmax [2, 5]: 1.17 h
half-life [2, 5]: 1.35 h
Tumor volume (Day 0) ([1]; 30 mg/kg twice a day): 131 ± 10 mm^3
RTV (Day 21) ([1]; 30 mg/kg twice a day): 7.57 ± 0.53
T/C (%) (Day 21) ([1]; 30 mg/kg twice a day): 79.3%
TGI (%) (Day 21) ([1]; 30 mg/kg twice a day): 20.6%
Tumor volume (Day 21) ([1]; 30 mg/kg twice a day): 979 ± 86 mm^3
tumor inhibitory effect compared with the blank control (in words) ([1]; 30 mg/kg, administered twice a day): certain tumor inhibitory effect
T/Cweight ([1]; 30 mg/kg): 79.6%
Tumor weight (PG-D21) ([1]; 30 mg/kg): 1.031 ± 0.095 g
Tumor volume (Day 0) ([1]; 60 mg/kg twice a day): 131 ± 10 mm^3
RTV (Day 21) ([1]; 60 mg/kg twice a day): 3.31 ± 0.51
T/C (%) (Day 21) ([1]; 60 mg/kg twice a day): 34.7%
TGI (%) (Day 21) ([1]; 60 mg/kg twice a day): 72.3%
Tumor volume (Day 21) ([1]; 60 mg/kg twice a day): 427 ± 64 mm^3
T/Cweight ([1]; 60 mg/kg): 36.0%
Tumor weight (PG-D21) ([1]; 60 mg/kg): 0.467 ± 0.078 g
tumor inhibitory effect compared with the blank control (in words) ([1]; 60 mg/kg, dosed twice a day): significant tumor inhibitory effect
Tumor volume (Day 0) ([1]; 90 mg/kg twice a day): 130 ± 10 mm^3
RTV (Day 21) ([1]; 90 mg/kg twice a day): 2.64 ± 0.45
T/C (%) (Day 21) ([1]; 90 mg/kg twice a day): 27.7%
TGI (%) (Day 21) ([1]; 90 mg/kg twice a day): 79.4%
Tumor volume (Day 21) ([1]; 90 mg/kg twice a day): 351 ± 64 mm^3
T/Cweight ([1]; 90 mg/kg): 29.2%
Tumor weight (PG-D21) ([1]; 90 mg/kg): 0.379 ± 0.069 g
tumor inhibitory effect compared with the blank control (in words) ([1]; 90 mg/kg, dosed twice a day): significant tumor inhibitory effect
dose dependence of the therapeutic effect ([1]; 30, 60, 90 mg/kg twice a day): dose-dependent
AUC(0-t) [3, 6]: 3.45 µM·h
C0 [3, 6]: 4.74 µM
clearance [3, 6]: 23.7 mL/min/kg
half-life [3, 6]: 0.733 h
Vd ([3]; male, Balb/c, 2 mg/kg, mouse plasma, IV 2 mpk, read-out: Vdss): 1.07 L/kg
AUC(0-t) [3, 7]: 23.2 µM·h
Cmax [3, 7]: 11.4 µM
Tmax [3, 7]: 0.5 h
half-life [3, 7]: 0.85 h
Tlast ([3]; mouse plasma, IV 2 mpk): 8 h
Tlast ([3]; mouse plasma, PO 10 mpk): 10 h
F ([3]; mouse, PO 10 mpk vs IV 2 mpk): 134%
